Assay [1] has as its target T1, mutEGFR (D770_N771insSVD) (Homo sapiens, UniProt P00533, DUP768-770).
T1 construct: GST-EGFR #3 (SVD between D770 and N771); made in house; host or cells: Sf9 insect cells (baculovirus)
In words: Exon20-Mutant-EGFR (D770_N771insSVD) kinase assay (TR-FRET). It counts as biochemical.

Assay [2] has as its target T2, mutEGFR (D770_N771insNPG, T790) (Homo sapiens, UniProt P00533, INS770NPG/T790M).
T2 construct: exact insNPG construct not described; in-house EGFR proteins were N-terminal GST fusions from baculovirus/insect cells (borders R669-A1210 given only for WT, insSVD, insASV)
In words: mutEGFR (D770_N771insNPG, T790) kinase assay. Type of assay: biochemical. As to conditions: Table 2a, D770_N771insNPG. An excerpt: The different EGFR proteins used in the biochemical kinase activity inhibition assays were generated inhouse by expression in insect cells using Baculo Virus system and subsequent purification as described in the following paragraphs.
The cDNAs encoding the various protein sequences from human EGFR human (P00533) were optimized for expression in eukaryotic cells and synthesized by the GeneArt Technology at Life Technologies.

For assay [3], the system named is BA/F3 (insSVD) cells. Put plainly: Ba/F3-EGFR-insSVD cell survival assay (Cell Titer-Glo). Type of assay: cell-based. In short, it runs like this:
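CellTiter-Glo luminescence read after 48 h compound exposure at 37° C. Cells: IL-3-independent Ba/F3 lines transduced with EGFR-insSVD or EGFR-insSVD T790M, maintained on 10 ng/ml EGF and seeded at 4000 per well.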
Background: Cellular ATP, detected with luciferase, serves as a proxy for viable cell number.

Setting [4] is: mutEGFR (D770_N771insSVD) kinase assay IC50, Table 2a, D770_N771insSVD, 2 mM ATP.
Setting [5] is: Mus musculus, BaF3, 48 h, Table 3a, cell survival, Cell Titer-Glo, with 10 ng/ml EGF, without IL-3.
Setting [6] is: Table 3a, cell survival, Cell Titer-Glo, with 10 ng/ml EGF, without IL-3, 48 h.

Structures are written as SMILES.

As a reminder, the IC50 is the concentration that gives 50% inhibition. A high value points to weaker potency.

T2 sequence (P00533 with tags, fused parts or gaps INS770NPG/T790M limits assumed): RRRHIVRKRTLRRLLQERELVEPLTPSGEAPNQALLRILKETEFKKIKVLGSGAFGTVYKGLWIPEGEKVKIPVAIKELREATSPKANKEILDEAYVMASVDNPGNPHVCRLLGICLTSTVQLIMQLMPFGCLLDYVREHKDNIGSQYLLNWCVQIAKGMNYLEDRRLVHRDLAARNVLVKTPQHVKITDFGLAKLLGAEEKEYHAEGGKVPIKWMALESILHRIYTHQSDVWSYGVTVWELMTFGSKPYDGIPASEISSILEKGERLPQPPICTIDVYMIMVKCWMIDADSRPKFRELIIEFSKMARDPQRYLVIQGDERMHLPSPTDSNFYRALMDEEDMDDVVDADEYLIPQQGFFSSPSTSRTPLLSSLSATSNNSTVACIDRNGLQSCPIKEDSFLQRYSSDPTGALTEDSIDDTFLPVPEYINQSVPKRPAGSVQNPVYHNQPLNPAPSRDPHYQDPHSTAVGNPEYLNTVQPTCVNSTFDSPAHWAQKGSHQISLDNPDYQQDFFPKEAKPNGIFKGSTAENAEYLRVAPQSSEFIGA
T1 sequence (P00533 with tags, fused parts or gaps DUP768-770): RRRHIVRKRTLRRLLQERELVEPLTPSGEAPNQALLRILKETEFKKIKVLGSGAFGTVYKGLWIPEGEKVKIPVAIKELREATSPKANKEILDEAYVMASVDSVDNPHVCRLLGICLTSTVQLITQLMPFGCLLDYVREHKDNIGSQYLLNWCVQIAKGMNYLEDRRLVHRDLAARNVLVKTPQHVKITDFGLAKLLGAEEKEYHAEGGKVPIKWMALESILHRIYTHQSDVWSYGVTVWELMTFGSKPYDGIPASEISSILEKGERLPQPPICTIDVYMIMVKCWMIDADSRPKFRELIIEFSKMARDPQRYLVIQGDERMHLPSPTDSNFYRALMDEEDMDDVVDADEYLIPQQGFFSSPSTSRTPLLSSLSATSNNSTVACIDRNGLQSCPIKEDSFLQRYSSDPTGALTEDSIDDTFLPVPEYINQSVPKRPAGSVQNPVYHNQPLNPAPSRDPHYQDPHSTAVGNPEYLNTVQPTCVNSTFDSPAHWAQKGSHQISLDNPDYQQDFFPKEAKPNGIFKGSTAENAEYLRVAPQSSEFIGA

`C=CC(=O)N1CCn2nc(-c3ccccc3Cl)c(-c3ccnc4[nH]cc(C)c34)c2C1` [Example 179, 1-[2-(2-chlorophenyl)-3-(3-methyl-1H-pyrrolo[2,3-b]pyridin-4-yl)-6,7-dihydropyrazolo[1,5-a]pyrazin-5(4H)-yl]prop-2-en-1-one]: the figures for the half-maximal inhibitory concentration (IC50) in assay [1] (setting [4]), in assay [2] and in assay [3] (setting [5]) were 438 nM, 360 nM and 265 nM, respectively.
Consider `CN(C)C/C=C/C(=O)N1CCn2nc(-c3ccc(Cl)c(Cl)c3)c(-c3ccncc3)c2C1` [Example 29, (2E)-1-[2-(3,4-dichlorophenyl)-3-(pyridin-4-yl)-6,7-dihydropyrazolo[1,5-a]pyrazin-5(4H)-yl]-4-(dimethylamino)but-2-en-1-one], for which the IC50 is 1.19 nM in assay [1] (setting [4]), 1.54 nM in assay [2] and 422 nM in assay [3] (setting [5]).
On to `C=CC(=O)N1CCn2nc(Nc3ccc(Cl)cc3F)c(-c3ccncc3)c2C1` [Example 95, 1-[2-(4-chloro-2-fluoroanilino)-3-(pyridin-4-yl)-6,7-dihydropyrazolo[1,5-a]pyrazin-5(4H)-yl]prop-2-en-1-one], for which the values for the IC50 in assay [1] (setting [4]), in assay [2] and in assay [3] (setting [5]) were 40.6 nM, 99.5 nM and 1210 nM, respectively.
For `C=CC(=O)N1CCn2nc(-c3ccc(Cl)cc3)c(-c3ccnc4[nH]cc(C)c34)c2C1` [Example 175, 1-[2-(4-chlorophenyl)-3-(3-methyl-1H-pyrrolo[2,3-b]pyridin-4-yl)-6,7-dihydropyrazolo[1,5-a]pyrazin-5(4H)-yl]prop-2-en-1-one] the same measures were 97.6 nM, 80.4 nM and 63.5 nM.
As to `CN(C)C/C=C/C(=O)N1Cc2c(-c3ccncc3)c(-c3ccc(F)cc3)nn2CC1(C)C` [Example 216, (2E)-4-(dimethylamino)-1-[2-(4-fluorophenyl)-6,6-dimethyl-3-(pyridin-4-yl)-6,7-dihydropyrazolo[1,5-a]pyrazin-5(4H)-yl]but-2-en-1-one], the IC50 in assay [1] (setting [4]) was 25 nM; in assay [2], 164 nM; in assay [3] (setting [5]), 418 nM.
Consider `C=CC(=O)N1Cc2c(-c3ccncc3)c(-c3ccc(Cl)cc3F)nn2CC1C` (centres unmarked) [Example 227, 1-(2-(4-chloro-2-fluorophenyl)-6-methyl-3-(pyridin-4-yl)-6,7-dihydropyrazolo[1,5-a]pyrazin-5(4H)-yl) prop-2-en-1-one], for which the IC50 in assay [1] (setting [4]) was 0.12 nM; in assay [2] it was 0.394 nM; in assay [3] (setting [5]), 5.94 nM.
Take `NCC#CC(=O)N1CCn2nc(-c3ccc(F)cc3)c(-c3ccncc3)c2C1` [Example 91, 4-amino-1-[2-(4-fluorophenyl)-3-(pyridin-4-yl)-6,7-dihydropyrazolo[1,5-a]pyrazin-5(4H)-yl]but-2-yn-1-one]: the IC50 came out at 26.3 nM in assay [1] (setting [4]), 52.8 nM in assay [2] and 1410 nM in assay [3] (setting [5]).
`O=C(/C=C/CN1CCCC1)N1CCn2nc(-c3ccc(F)cc3)c(-c3ccncc3)c2C1` [Example 79, (2E)-1-[2-(4-fluorophenyl)-3-(pyridin-4-yl)-6,7-dihydropyrazolo[1,5-a]pyrazin-5(4H)-yl]-4-(pyrrolidin-1-yl) but-2-en-1-one]: the figures for the IC50 in assay [1] (setting [4]), in assay [2] and in assay [3] (setting [5]) were 1.47 nM, 2.51 nM and 62.9 nM, respectively.
Take `O=C(/C=C/C(F)(F)F)N1CCn2nc(-c3ccc(F)cc3)c(-c3ccncc3)c2C1` [Example 67, (2E)-4,4,4-trifluoro-1-[2-(4-fluorophenyl)-3-(pyridin-4-yl)-6,7-dihydropyrazolo[1,5-a]pyrazin-5(4H)-yl]but-2-en-1-one]: the IC50 is 1.22 nM in assay [1] (setting [4]), 3.3 nM in assay [2] and 83.4 nM in assay [3] (setting [5]).
As for `C=CC(=O)N1Cc2c(-c3ccncc3)c(-c3ccc(Cl)cc3)nn2CC1(C)C` [Example 211, 1-[2-(4-chlorophenyl)-6,6-dimethyl-3-(pyridin-4-yl)-6,7-dihydropyrazolo[1,5-a]pyrazin-5(4H)-yl]prop-2-en-1-one], the figures for the IC50 in assay [1] (setting [4]), in assay [2] and in assay [3] (setting [5]) were 12.5 nM, 40.5 nM and 378 nM, respectively.
Take `C=CC(=O)N1CCn2nc(-c3ccc(C(F)(F)F)cc3)c(-c3ccnc4[nH]ccc34)c2C1C` (single isomer, unassigned; isomer 1) [Example 258, 1-(4-methyl-3-(1H-pyrrolo[2,3-b]pyridin-4-yl)-2-(4-(trifluoromethyl)phenyl)-6,7-dihydropyrazolo[1,5-a]pyrazin-5(4H)-yl) prop-2-en-1-one (isomer 1)]: the 50% inhibitory concentration (IC50) in assay [1] (setting [4]) is 100 nM; in assay [2], 1070 nM; in assay [3] (setting [6]), 82.6 nM.
For `C=CC(=O)N1CCn2nc(-c3ccc(F)cc3)c(-c3ccnc4[nH]cc(C)c34)c2C1C` (single isomer, unassigned; isomer 2) [Example 250, 1-(2-(4-fluorophenyl)-4-methyl-3-(3-methyl-1H-pyrrolo[2,3-b]pyridin-4-yl)-6,7-dihydropyrazolo[1,5-a]pyrazin-5(4H)-yl) prop-2-en-1-one (isomer 2)] the same measures were 435 nM, 216 nM and 75.1 nM.
On the same counts, the results for `CC1c2c(-c3ccnc4[nH]ccc34)c(-c3ccc(C(F)(F)F)cc3)nn2CCN1C(=O)/C=C/CN(C)C` (single isomer, unassigned; isomer 1) [Example 264, (E)-4-(dimethylamino)-1-(4-methyl-3-(1H-pyrrolo[2,3-b]pyridin-4-yl)-2-(4-(trifluoromethyl)phenyl)-6,7-dihydropyrazolo[1,5-a]pyrazin-5(4H)-yl) but-2-en-1-one (isomer 1)] are 765 nM, 1130 nM and 128 nM.
As for `C=CC(=O)N1CCn2nc(-c3ccc(C(F)(F)F)cc3)c(-c3ccncc3C3CC3)c2C1` [Example 55, 1-[3-(3-cyclopropylpyridin-4-yl)-2-[4-(trifluoromethyl)phenyl]-6,7-dihydropyrazolo[1,5-a]pyrazin-5(4H)-yl]prop-2-en-1-one], the IC50 in assay [1] (setting [4]) stood at 350 nM; in assay [2], 2540 nM; in assay [3] (setting [5]), 744 nM.
`C=CC(=O)N1Cc2c(-c3ccncc3)c(-c3ccc(Cl)cc3)nn2C[C@@H]1C` [Example 122, 1-[(6S)-2-(4-chlorophenyl)-6-methyl-3-(pyridin-4-yl)-6,7-dihydropyrazolo[1,5-a]pyrazin-5(4H)-yl]prop-2-en-1-one]: the results for the IC50 in assay [1] (setting [4]), in assay [2] and in assay [3] (setting [5]) were 0.369 nM, 0.803 nM and 13.8 nM, respectively.
In the case of `C=CC(=O)N1CCn2nc(-c3ccc(F)cc3)c(-c3ccnc(Nc4ccccc4)c3)c2C1` [Example 20, 1-[3-(2-anilinopyridin-4-yl)-2-(4-fluorophenyl)-6,7-dihydropyrazolo[1,5-a]pyrazin-5(4H)-yl]prop-2-en-1-one], the IC50 in assay [1] (setting [4]) was 3.54 nM; in assay [1] (mutEGFR (D770_N771insSVD) kinase assay IC50, Table 2b (from US Priority Patent Application), mutEGFR D770_N771insSVD) it was 3.54 nM; in assay [2] it was 9.13 nM; in assay [3] (setting [5]) it was 617 nM; in assay [3] (Mus musculus, BaF3, 48 h, Table 3b, Ba/F3 EGFR-insSVD), 617 nM.
Take `CN(C)C/C=C/C(=O)N1CCn2nc(-c3ccc(C(F)(F)F)cc3)c(-c3ccncc3)c2C1` [Example 34, (2E)-4-(dimethylamino)-1-[3-(pyridin-4-yl)-2-[4-(trifluoromethyl)phenyl]-6,7-dihydropyrazolo[1,5-a]pyrazin-5(4H)-yl]but-2-en-1-one]: the results for the IC50 in assay [1] (setting [4]), in assay [2] and in assay [3] (setting [5]) were 1.37 nM, 4.32 nM and 198 nM, respectively.
For `Cc1cc(-c2nn3c(c2-c2ccncc2)CN(C(=O)/C=C/CN(C)C)CC3(C)C)ccc1Cl` [Example 214, (2E)-1-[2-(4-chloro-3-methylphenyl)-7,7-dimethyl-3-(pyridin-4-yl)-6,7-dihydropyrazolo[1,5-a]pyrazin-5(4H)-yl]-4-(dimethylamino)but-2-en-1-one], the values for the IC50 in assay [1] (setting [4]), in assay [2] and in assay [3] (setting [5]) were 0.272 nM, 0.654 nM and 69 nM, respectively.
On to `CC1c2c(-c3ccnc4[nH]ccc34)c(-c3ccc(C(F)(F)F)cc3)nn2CCN1C(=O)/C=C/CN(C)C` (single isomer, unassigned; isomer 2) [Example 252, 4-(dimethylamino)-1-[4-methyl-3-(1H-pyrrolo[2,3-b]pyridin-4-yl)-2-[4-(trifluoromethyl)phenyl]-6,7-dihydropyrazolo[1,5-a]pyrazin-5(4H)-yl]but-2-en-1-one (isomer 2)], for which the values for the IC50 in assay [1] (setting [4]), in assay [2] and in assay [3] (setting [5]) were 11.7 nM, 2840 nM and 180 nM, respectively.
Consider `C=CC(=O)N1Cc2c(-c3ccncc3)c(-c3ccc4cc(Cl)sc4c3)nn2CC1C` (racemic) [Example 233, 1-[(RS)-2-(2-chloro-1-benzothiophen-6-yl)-6-methyl-3-(pyridin-4-yl)-6,7-dihydropyrazolo[1,5-a]pyrazin-5(4H)-yl]prop-2-en-1-one], for which the concentration for half-maximal inhibition (IC50) in assay [1] (setting [4]) stood at 0.258 nM; in assay [2] it was 0.467 nM; in assay [3] (setting [5]), 48.7 nM.

The values are drawn from US20260365653A1, “IRREVERSIBLE MUTEGFR INHIBITORS” (Bayer Aktiengesellschaft, priority 2022, published 2026).
